Source: BindingDB's records for doi:10.1016/S0960-894X(97)00417-4 (1997)

assay: Inhibition of [3H]pentazocine binding to Sigma opioid receptor type 1

Going from C=CCN1CC[C@@]2(C)c3cc(O)ccc3C[C@H]1[C@H]2C [(1S,9S,13S)-10-allyl-1,13-dimethyl-10-azatricyclo[7.3.1.0~2,7~]trideca-2,4,6-trien-4-ol] to CC1(C)C2CC[C@]1(C)CN(CCC1CCCC1)C2 [(S)-3-(2-Cyclopentyl-ethyl)-1,8,8-trimethyl-3-aza-bicyclo[3.2.1]octane], the Ki falls from 157 nM to 1.7 nM (92-fold).

CC1(C)C2CC[C@]1(C)CN(CC1CCCCC1)C2 [(S)-3-Cyclohexylmethyl-1,8,8-trimethyl-3-aza-bicyclo[3.2.1]octane] and CC1(C)C2CC[C@@]1(C)CN(CC1CCCCC1)C2 [(R)-3-Cyclohexylmethyl-1,8,8-trimethyl-3-aza-bicyclo[3.2.1]octane] are within 1.5-fold of each other in Ki: 1.3 nM for the first, 1.1 nM for the second.

CC1(C)C2CC[C@]1(C)CN(CCC1CCCCCC1)C2 [(S)-3-(2-Cycloheptyl-ethyl)-1,8,8-trimethyl-3-aza-bicyclo[3.2.1]octane] and CC1(C)C2CC[C@]1(C)CN(CCC1CCCCCCC1)C2 [(S)-3-(2-Cyclooctyl-ethyl)-1,8,8-trimethyl-3-aza-bicyclo[3.2.1]octane] are the same in Ki: 2.9 nM for the first, 2.9 nM for the second.

CC1(C)C2CC[C@]1(C)CN(C1CCCCC1)C2 [(S)-3-Cyclohexyl-1,8,8-trimethyl-3-aza-bicyclo[3.2.1]octane] and CC1(C)C2CC[C@]1(C)CN(CCC1CCCCC1)C2 [(S)-3-(2-Cyclohexyl-ethyl)-1,8,8-trimethyl-3-aza-bicyclo[3.2.1]octane] are within 1.5-fold of each other in Ki: 3 nM for the first, 2.2 nM for the second.

First: CC1(C)C2CC[C@]1(C)CN(CCCCC1CCCCC1)C2 [(S)-3-(4-Cyclohexyl-butyl)-1,8,8-trimethyl-3-aza-bicyclo[3.2.1]octane]
Second: CC1(C)C2CC[C@]1(C)CN(CCCC1CCCCC1)C2 [(S)-3-(3-Cyclohexyl-propyl)-1,8,8-trimethyl-3-aza-bicyclo[3.2.1]octane]
The Ki of the first is 2.1-fold lower: 1.2 nM for the first, 2.5 nM for the second.

Compared with CC1(C)C2CC[C@@]1(C)CN(CCC1CCCCC1)C2 [(R)-3-(2-Cyclohexyl-ethyl)-1,8,8-trimethyl-3-aza-bicyclo[3.2.1]octane], CC1(C)C2CC[C@]1(C)CN(CCC1C3CC4CC(C3)CC1C4)C2 (stereo partly drawn) [(S)-3-(2-Adamantan-2-yl-ethyl)-1,8,8-trimethyl-3-aza-bicyclo[3.2.1]octane] is 3.1-fold higher in Ki: 1.4 nM for the first, 4.3 nM for the second.
